Laboratory results as given in ChEMBL document CHEMBL1909046, “DrugMatrix in vitro pharmacology data”.

Key:
[1] = target: T1, C-C chemokine receptor type 4 (Homo sapiens, UniProt P51679); type: cell membranes, Membrane; conditions: chem-1; also: in other assays of this panel Not Active means under 50% inhibition at 10 µM
T1 sequence (P51679 whole entry): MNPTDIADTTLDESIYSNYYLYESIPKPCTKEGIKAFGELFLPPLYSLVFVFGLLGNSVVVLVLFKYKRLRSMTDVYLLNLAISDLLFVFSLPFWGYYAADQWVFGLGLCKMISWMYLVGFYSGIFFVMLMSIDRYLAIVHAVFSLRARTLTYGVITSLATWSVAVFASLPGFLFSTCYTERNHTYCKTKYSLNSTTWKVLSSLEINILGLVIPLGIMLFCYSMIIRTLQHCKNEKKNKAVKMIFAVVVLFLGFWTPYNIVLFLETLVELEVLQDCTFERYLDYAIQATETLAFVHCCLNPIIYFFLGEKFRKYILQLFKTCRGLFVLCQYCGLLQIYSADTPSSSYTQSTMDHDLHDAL

[2] = target: Mitogen-activated protein kinase 3 (Homo sapiens, UniProt P27361); assay: DRUGMATRIX: Protein Serine/Threonine Kinase, ERK1 enzyme inhibition (substrate: Myelin Basic Protein); set-up: species or system Escherichia coli; conditions: Not Active = under 50% inhibition at 10 µM
[3] = DRUGMATRIX: Platelet-Derived Growth Factor (PDGF) radioligand binding (ligand: [125I] PDGF); type: cell-based; conditions: nih3t3; Not Active = under 50% inhibition at 10 µM
[4] = DRUGMATRIX: Calcium Channel Type L, Benzothiazepine radioligand binding (ligand: [3H] Diltiazem); type: cell membranes, Rattus norvegicus, Wistar, Brain, Membrane; conditions: Not Active = under 50% inhibition at 10 µM
[5] = DRUGMATRIX: Glutamate, NMDA, Agonism radioligand binding (ligand: [3H] CGP-39653); type: cell membranes, Rattus norvegicus, Wistar, Cerebral cortex, Membrane; conditions: Not Active = under 50% inhibition at 10 µM
[6] = target: Tyrosine-protein kinase Fyn (Homo sapiens, UniProt P06241); assay: biochemical; type: cell-based, Insect cells; conditions: insect cells;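 also: enzymatic inhibition of Fyn kinase activity measured with Poly(Glu:Tyr) as the phosphorylation substrate; in other assays of this panel Not Active means under 50% inhibition at 10 µM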
[7] = target: T2, Type-2 angiotensin II receptor (Homo sapiens, UniProt P50052); type: cell-based; conditions: cho-k1; also: in other assays of this panel Not Active means under 50% inhibition at 10 µM
T2 sequence (P50052 whole entry): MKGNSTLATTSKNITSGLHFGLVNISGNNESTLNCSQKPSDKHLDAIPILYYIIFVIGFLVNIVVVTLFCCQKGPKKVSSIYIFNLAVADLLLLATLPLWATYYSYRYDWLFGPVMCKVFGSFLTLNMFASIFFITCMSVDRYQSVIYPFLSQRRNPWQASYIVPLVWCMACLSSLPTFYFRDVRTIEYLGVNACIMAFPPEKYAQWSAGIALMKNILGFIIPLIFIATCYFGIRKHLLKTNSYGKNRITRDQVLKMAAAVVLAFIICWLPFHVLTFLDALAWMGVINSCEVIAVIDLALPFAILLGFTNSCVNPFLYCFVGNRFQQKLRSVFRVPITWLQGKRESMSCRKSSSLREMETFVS

[8] = target: Aldo-keto reductase family 1 member B1 (Rattus norvegicus, UniProt P07943); type: tissue-based, Lens of camera-type eye;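 also: inhibition of aldose reductase enzyme activity, measured with DL-glyceraldehyde as the substrate; in other assays of this panel Not Active means under 50% inhibition at 10 µM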
[9] = target: Voltage-gated inwardly rectifying potassium channel KCNH2 (Homo sapiens, UniProt Q12809); conditions: hek293; also: in other assays of this panel Not Active means under 50% inhibition at 10 µM
Acetylcholinesterase = Acetylcholinesterase (Homo sapiens, UniProt P22303); assay: DRUGMATRIX: Acetylcholinesterase enzyme inhibition (substrate: acetylthiocholine); type: cell-based, HEK293; conditions: hek293; Not Active = under 50% inhibition at 10 µM
[10] = DRUGMATRIX: Glutamate, NMDA, Phencyclidine radioligand binding (ligand: [3H] TCP); type: cell membranes, Rattus norvegicus, Wistar, Cerebral cortex, Membrane; conditions: Not Active = under 50% inhibition at 10 µM
[11] = target: Mitogen-activated protein kinase 1 (Homo sapiens, UniProt P28482); assay: DRUGMATRIX: Protein Serine/Threonine Kinase, ERK2 enzyme inhibition (substrate: Myelin Basic Protein); set-up: species or system Escherichia coli; conditions: Not Active = under 50% inhibition at 10 µM
[12] = target: T3, Neuropeptide Y receptor type 1 (Homo sapiens, UniProt P25929); type: cell membranes, Membrane; conditions: sk-n-mc; also: in other assays of this panel Not Active means under 50% inhibition at 10 µM
T3 sequence (P25929 whole entry): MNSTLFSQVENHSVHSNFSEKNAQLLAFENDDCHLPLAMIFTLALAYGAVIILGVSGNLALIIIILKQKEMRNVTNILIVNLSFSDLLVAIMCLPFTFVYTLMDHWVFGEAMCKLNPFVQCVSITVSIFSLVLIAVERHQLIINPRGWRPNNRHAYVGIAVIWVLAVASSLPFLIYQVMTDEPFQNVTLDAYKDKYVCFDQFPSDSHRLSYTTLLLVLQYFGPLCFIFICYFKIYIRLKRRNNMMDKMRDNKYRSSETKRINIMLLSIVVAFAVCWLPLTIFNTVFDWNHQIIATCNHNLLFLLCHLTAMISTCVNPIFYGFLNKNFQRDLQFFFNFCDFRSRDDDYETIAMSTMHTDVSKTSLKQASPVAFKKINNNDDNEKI

Substance-K receptor = target: T4, Substance-K receptor (Homo sapiens, UniProt P21452); type: cell membranes, CHO, Membrane; also: in other assays of this panel Not Active means under 50% inhibition at 10 µM
T4 sequence (P21452 whole entry): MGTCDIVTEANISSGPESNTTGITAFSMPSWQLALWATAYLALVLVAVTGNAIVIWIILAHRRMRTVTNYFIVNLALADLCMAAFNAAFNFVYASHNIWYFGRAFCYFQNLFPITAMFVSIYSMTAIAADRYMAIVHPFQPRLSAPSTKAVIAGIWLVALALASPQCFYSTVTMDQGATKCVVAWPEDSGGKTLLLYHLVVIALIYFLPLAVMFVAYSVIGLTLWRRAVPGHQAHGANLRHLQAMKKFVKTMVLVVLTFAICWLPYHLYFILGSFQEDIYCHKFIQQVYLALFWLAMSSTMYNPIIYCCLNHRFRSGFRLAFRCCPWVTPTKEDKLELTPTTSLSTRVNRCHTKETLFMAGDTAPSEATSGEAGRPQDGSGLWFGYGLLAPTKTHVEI

Cytochrome P450 3A4 = Cytochrome P450 3A4 (Homo sapiens, UniProt P08684); conditions: bti-tn-5b1-4; also: in other assays of this panel Not Active means under 50% inhibition at 10 µM
Chain of Cytochrome P450 3A4 (P08684 whole entry): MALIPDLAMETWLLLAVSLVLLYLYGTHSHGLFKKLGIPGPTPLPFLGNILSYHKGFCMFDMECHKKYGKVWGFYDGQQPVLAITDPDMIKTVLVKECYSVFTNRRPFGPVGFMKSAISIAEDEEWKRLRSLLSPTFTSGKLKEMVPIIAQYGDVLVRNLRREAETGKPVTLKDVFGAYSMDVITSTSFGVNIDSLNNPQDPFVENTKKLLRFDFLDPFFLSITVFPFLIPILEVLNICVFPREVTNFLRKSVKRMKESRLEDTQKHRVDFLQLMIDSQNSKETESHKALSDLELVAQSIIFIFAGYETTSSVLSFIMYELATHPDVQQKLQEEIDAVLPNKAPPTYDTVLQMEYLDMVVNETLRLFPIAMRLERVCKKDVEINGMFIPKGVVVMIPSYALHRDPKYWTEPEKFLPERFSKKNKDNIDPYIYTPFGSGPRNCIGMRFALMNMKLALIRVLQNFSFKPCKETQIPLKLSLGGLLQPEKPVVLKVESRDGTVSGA

Chain of Voltage-gated inwardly rectifying potassium channel KCNH2 (Q12809 whole entry): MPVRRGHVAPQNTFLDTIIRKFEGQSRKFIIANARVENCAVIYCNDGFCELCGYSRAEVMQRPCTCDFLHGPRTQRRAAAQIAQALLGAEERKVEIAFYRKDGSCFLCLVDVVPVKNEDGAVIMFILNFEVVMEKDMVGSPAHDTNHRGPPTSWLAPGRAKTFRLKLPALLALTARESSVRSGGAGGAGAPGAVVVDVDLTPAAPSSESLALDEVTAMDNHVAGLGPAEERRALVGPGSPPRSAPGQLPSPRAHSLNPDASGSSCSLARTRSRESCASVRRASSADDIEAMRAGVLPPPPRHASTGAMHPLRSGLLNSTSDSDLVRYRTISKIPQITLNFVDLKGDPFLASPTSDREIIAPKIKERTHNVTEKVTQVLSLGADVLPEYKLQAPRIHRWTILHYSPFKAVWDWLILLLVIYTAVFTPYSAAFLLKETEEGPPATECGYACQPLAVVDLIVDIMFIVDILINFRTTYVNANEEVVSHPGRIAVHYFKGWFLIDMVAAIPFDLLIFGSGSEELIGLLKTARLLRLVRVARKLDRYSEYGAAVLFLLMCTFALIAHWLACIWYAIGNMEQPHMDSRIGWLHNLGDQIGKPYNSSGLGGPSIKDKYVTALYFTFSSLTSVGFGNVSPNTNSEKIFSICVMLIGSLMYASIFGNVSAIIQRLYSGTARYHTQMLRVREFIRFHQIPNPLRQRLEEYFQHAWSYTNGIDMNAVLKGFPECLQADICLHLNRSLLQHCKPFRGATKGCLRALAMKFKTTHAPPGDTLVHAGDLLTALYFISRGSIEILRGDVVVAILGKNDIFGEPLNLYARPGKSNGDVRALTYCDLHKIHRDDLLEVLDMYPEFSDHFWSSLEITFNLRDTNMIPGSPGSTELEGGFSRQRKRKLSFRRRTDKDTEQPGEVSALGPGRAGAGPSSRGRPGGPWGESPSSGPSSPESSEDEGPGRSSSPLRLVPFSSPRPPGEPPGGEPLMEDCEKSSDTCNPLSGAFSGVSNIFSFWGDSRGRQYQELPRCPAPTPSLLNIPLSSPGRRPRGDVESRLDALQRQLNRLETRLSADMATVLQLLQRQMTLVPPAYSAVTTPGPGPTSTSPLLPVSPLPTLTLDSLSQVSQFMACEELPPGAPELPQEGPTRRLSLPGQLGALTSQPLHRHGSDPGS
Chain of Mitogen-activated protein kinase 1 (P28482 whole entry): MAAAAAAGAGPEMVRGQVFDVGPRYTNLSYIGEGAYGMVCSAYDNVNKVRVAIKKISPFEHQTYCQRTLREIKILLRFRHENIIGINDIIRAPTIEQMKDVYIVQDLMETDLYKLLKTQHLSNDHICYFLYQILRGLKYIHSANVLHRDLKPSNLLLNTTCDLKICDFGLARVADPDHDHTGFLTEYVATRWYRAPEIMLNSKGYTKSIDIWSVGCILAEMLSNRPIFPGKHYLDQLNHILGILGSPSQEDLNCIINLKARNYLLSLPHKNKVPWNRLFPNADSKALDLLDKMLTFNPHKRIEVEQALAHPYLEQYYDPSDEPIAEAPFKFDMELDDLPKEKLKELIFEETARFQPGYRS
Chain of Acetylcholinesterase (P22303 whole entry): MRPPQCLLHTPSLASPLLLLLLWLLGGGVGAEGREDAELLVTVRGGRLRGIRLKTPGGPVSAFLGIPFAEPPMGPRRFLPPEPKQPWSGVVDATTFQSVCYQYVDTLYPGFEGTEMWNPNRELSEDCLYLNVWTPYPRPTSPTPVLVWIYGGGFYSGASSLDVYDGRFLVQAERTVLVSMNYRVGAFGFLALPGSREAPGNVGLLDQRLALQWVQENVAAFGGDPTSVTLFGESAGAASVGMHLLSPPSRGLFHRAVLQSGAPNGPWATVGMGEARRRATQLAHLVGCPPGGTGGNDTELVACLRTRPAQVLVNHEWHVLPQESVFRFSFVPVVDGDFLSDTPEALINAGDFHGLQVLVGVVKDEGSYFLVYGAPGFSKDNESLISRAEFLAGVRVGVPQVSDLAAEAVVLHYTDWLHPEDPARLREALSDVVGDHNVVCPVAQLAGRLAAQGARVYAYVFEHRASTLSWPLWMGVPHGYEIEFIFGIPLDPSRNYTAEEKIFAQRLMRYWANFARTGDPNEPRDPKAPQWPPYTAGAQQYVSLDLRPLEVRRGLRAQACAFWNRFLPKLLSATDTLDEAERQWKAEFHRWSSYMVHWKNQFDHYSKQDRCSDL
Chain of Mitogen-activated protein kinase 3 (P27361 whole entry): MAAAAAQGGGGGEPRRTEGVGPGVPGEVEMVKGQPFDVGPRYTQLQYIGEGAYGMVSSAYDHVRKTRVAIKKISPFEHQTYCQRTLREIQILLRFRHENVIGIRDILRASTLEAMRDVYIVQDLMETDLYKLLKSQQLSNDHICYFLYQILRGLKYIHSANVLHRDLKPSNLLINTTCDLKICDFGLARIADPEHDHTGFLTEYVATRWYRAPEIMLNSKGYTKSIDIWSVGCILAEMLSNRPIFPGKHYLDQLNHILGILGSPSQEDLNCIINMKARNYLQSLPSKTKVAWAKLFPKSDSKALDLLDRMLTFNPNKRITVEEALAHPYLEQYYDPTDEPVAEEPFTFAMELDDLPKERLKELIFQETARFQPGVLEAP
Chain of Tyrosine-protein kinase Fyn (P06241 whole entry): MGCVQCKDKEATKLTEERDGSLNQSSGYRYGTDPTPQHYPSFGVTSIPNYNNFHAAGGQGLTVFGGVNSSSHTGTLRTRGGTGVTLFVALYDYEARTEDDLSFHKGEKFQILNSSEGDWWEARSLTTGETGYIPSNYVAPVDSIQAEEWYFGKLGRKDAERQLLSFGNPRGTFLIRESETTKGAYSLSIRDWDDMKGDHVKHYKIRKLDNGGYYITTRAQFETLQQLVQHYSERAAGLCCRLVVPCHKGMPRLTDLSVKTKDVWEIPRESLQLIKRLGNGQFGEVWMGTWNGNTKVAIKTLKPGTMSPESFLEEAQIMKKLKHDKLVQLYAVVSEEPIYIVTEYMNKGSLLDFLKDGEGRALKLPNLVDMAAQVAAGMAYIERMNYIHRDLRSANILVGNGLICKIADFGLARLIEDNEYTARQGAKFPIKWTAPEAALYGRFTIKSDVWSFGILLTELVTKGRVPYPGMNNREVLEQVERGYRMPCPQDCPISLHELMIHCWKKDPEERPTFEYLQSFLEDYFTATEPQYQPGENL

O=c1cc(-c2ccccc2)oc2c1ccc1ccccc12 [ALPHA-NAPHTHOFLAVONE]
Not Active: IC50 [1] | IC50 [2] | IC50 [3] | Ki [3] | IC50 [4] | Ki [4] | IC50 [5] | Ki [5] | IC50 [6] | IC50 [7] | IC50 [8] | IC50 [9] | Ki [9] | IC50 (Acetylcholinesterase) | IC50 [10] | Ki [10] | IC50 [11] | IC50 [12] | IC50 (Cytochrome P450 3A4) | Ki (Cytochrome P450 3A4)
5.85 µM: IC50 (Substance-K receptor; read-out: IC50)
1.95 µM: Ki (Substance-K receptor; read-out: Ki)

NCC[C@H](O)C(=O)N[C@@H]1C[C@H](N)[C@@H](O[C@H]2O[C@H](CN)[C@@H](O)[C@H](O)[C@H]2O)[C@H](O)[C@H]1O[C@H]1O[C@H](CO)[C@@H](O)[C@H](N)[C@H]1O [AMIKACIN]
Not Active: IC50 [1] | IC50 [2] | IC50 [3] | Ki [3] | IC50 [4] | Ki [4] | IC50 [5] | Ki [5] | IC50 [6] | IC50 [7] | IC50 [8] | IC50 [9] | Ki [9] | IC50 (Acetylcholinesterase) | IC50 [10] | Ki [10] | IC50 [11] | IC50 [12] | IC50 (Substance-K receptor; cho) | IC50 (Cytochrome P450 3A4) | Ki (Cytochrome P450 3A4)

CCOC(=O)OC(C)OC1=C(C(=O)Nc2ccccn2)N(C)S(=O)(=O)c2ccccc21 (stereo not drawn) [AMPIROXICAM]
Not Active: IC50 [1] | IC50 [2] | IC50 [3] | Ki [3] | IC50 [4] | Ki [4] | IC50 [5] | Ki [5] | IC50 [6] | IC50 [7] | IC50 [8] | IC50 [9] | Ki [9] | IC50 (Acetylcholinesterase) | IC50 [10] | Ki [10] | IC50 [11] | IC50 [12] | IC50 (Substance-K receptor; cho) | IC50 (Cytochrome P450 3A4) | Ki (Cytochrome P450 3A4)

N#C[C@H](O[C@@H]1O[C@H](CO[C@@H]2O[C@H](CO)[C@@H](O)[C@H](O)[C@H]2O)[C@@H](O)[C@H](O)[C@H]1O)c1ccccc1 [AMYGDALIN]
Not Active: IC50 [1] | IC50 [2] | IC50 [3] | Ki [3] | IC50 [4] | Ki [4] | IC50 [5] | Ki [5] | IC50 [6] | IC50 [7] | IC50 [8] | IC50 [9] | Ki [9] | IC50 (Acetylcholinesterase) | IC50 [10] | Ki [10] | IC50 [11] | IC50 [12] | IC50 (Substance-K receptor; cho) | IC50 (Cytochrome P450 3A4) | Ki (Cytochrome P450 3A4)

N=C(N)NCCCCNC(=N)N.O=S(=O)(O)O [ARCAINE SULFATE]
Not Active: IC50 [1] | IC50 [2] | IC50 [3] | Ki [3] | IC50 [4] | Ki [4] | IC50 [5] | Ki [5] | IC50 [6] | IC50 [7] | IC50 [8] | IC50 [9] | Ki [9] | IC50 (Acetylcholinesterase) | IC50 [10] | Ki [10] | IC50 [11] | IC50 [12] | IC50 (Substance-K receptor; cho) | IC50 (Cytochrome P450 3A4) | Ki (Cytochrome P450 3A4)

C=C1[C@@H]2CCC3[C@@](CC[C@@H]4[C@H](C(=O)O)C[C@@H](O[C@@H]5O[C@H](CO)[C@@H](OS(=O)(=O)[O-])[C@H](OS(=O)(=O)[O-])[C@H]5OC(=O)CC(C)C)C[C@@]34C)(C2)[C@@H]1O.[K+].[K+] (stereo partly drawn) [ATRACTYLOSIDE]
Not Active: IC50 [1] | IC50 [2] | IC50 [3] | Ki [3] | IC50 [4] | Ki [4] | IC50 [5] | Ki [5] | IC50 [6] | IC50 [7] | IC50 [8] | IC50 [9] | Ki [9] | IC50 (Acetylcholinesterase) | IC50 [10] | Ki [10] | IC50 [11] | IC50 [12] | IC50 (Substance-K receptor; cho) | IC50 (Cytochrome P450 3A4) | Ki (Cytochrome P450 3A4)

Cn1cnc([N+](=O)[O-])c1Sc1ncnc2nc[nH]c12 [AZATHIOPRINE]
Not Active: IC50 [1] | IC50 [2] | IC50 [3] | Ki [3] | IC50 [4] | Ki [4] | IC50 [5] | Ki [5] | IC50 [6] | IC50 [7] | IC50 [8] | IC50 [9] | Ki [9] | IC50 (Acetylcholinesterase) | IC50 [10] | Ki [10] | IC50 [11] | IC50 [12] | IC50 (Substance-K receptor; cho) | IC50 (Cytochrome P450 3A4) | Ki (Cytochrome P450 3A4)
